Drawing on the NIST ThermoML archive (doi:10.1016/j.tca.2016.11.008), this text covers mass density for two compounds.

The nature of this series: xn = mol fraction of the nth substance listed. Particulars: 101.3 kPa, Liquid, Vibrating tube method.

± gives the expanded uncertainty stated by the source.

Turning to `OCCOCCOCCO` [triethylene glycol] + C[N+](C)(C)CCO.[Cl-], the mass density is on record as 1125.4 ± 3.1 kg/m3 (303.15 K, x2 = 0.333); 1118.9 ± 3.1 kg/m3 (313.15 K, x2 = 0.333); 1112.5 ± 3 kg/m3 (323.15 K, x2 = 0.333); 1106.2 ± 3 kg/m3 (333.15 K, x2 = 0.333); 1099.8 ± 3 kg/m3 (343.15 K, x2 = 0.333); 1093.5 ± 3 kg/m3 (353.15 K, x2 = 0.333).

With `C[N+](C)(C)CCO.[Cl-]` [choline chloride] + O=C[C@H](O)[C@@H](O)[C@H](O)[C@H](O)CO, the mass density reads like this: (303.15 K, x1 = 0.667) 1239.7 ± 3.4 kg/m3; (313.15 K, x1 = 0.667) 1234.6 ± 3.3 kg/m3; (323.15 K, x1 = 0.667) 1229.4 ± 3.3 kg/m3; (333.15 K, x1 = 0.667) 1224.3 ± 3.3 kg/m3; (343.15 K, x1 = 0.667) 1219.2 ± 3.3 kg/m3; (353.15 K, x1 = 0.667) 1214 ± 3.3 kg/m3.
